The values below are quoted from earlier work in US20070178172A1, “Composition for reducing blood lipids” (MAXLUCK BIOTECHNOLOGY CORP., priority 2004, published 2007).

This series has as its system obesity mouse. The note with it: Cefalu et al. 2002.

On to chromium picolinate, for which the “effect on blood lipids” value was “could reduce the blood lipids”.
